# Data published in patent EP2647379A1, “Combined use of a steroid sulfatase inhibitor for the treatment of endometriosis” (PregLem S.A., priority 2012, dated 2013).
# Read-outs that look alike come from different tables or passages of the source.
# Legend:
# [1] = target: T1, STS (Homo sapiens, UniProt P08842); conditions: cited from earlier work
# T1 sequence (P08842 22-583): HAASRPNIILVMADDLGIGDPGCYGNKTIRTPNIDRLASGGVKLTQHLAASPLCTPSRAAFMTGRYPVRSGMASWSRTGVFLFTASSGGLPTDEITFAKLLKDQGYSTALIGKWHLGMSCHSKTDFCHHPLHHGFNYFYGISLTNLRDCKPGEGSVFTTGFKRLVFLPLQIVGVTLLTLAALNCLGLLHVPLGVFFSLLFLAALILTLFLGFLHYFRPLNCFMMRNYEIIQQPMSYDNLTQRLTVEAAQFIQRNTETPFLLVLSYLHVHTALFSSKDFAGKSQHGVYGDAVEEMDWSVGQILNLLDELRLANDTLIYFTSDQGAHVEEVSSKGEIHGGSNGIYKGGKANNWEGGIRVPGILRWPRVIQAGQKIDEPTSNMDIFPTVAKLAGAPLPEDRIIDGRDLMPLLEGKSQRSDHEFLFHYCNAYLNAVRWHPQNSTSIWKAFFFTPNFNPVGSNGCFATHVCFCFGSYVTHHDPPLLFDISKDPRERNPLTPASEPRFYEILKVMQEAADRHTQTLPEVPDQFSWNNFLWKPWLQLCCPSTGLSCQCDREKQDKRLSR
# [2] = target: T1, STS; conditions: for AVG [%]: Average inhibition of Steroid Sulfatase in endometrium, Mean (SD), N = 8
# Description: (§1) Blood samples were collected from each subject in order to determine pharmacodynamic parameters (sulfatase activity and hormonal profile). Ovarian and endometrium transvaginal ultrasounds throughout the study and an endometrial biopsy were performed.
# (§2) The biopsy was scheduled between 5 to 8 days before the anticipated onset of the next menstrual cycle after treatment and 1 month after treatment cessation.
# (§3) STS activity was determined by spiking specimens with labelled EI-S and by measuring its conversion to E1 per gram protein under standardized incubation conditions using LC-MS/MS. Protein concentration was evaluated with a validated colorimetric assay (Bradford method).
# [3] = target: STS (Mus musculus, UniProt P50427); conditions: mice, cited from earlier work
# Sequence of STS (Mus musculus, UniProt P50427) (P50427 23-624): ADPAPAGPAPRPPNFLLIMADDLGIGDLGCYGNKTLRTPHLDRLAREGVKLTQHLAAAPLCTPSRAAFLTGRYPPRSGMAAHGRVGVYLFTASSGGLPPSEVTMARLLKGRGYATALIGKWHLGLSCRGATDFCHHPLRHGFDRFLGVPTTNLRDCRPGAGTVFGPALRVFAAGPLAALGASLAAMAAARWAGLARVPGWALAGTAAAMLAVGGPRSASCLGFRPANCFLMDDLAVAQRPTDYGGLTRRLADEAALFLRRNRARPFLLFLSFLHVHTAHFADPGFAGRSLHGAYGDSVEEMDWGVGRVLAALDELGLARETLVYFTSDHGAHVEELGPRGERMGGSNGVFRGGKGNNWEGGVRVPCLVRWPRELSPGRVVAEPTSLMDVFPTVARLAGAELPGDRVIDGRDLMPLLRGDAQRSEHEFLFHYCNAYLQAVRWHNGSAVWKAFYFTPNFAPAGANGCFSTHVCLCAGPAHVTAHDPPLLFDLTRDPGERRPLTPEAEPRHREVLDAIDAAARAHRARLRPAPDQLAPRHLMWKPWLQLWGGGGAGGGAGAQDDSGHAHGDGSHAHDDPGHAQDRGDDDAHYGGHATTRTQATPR
# [4] = target: T1, STS; conditions: cited from earlier work; remark: listed apart in the source
# [5] = multiple doses of 4 mg E2MATE, 10 mg NETA, for 4 weeks
# [6] = target: T1, STS; assay: in vivo
# Description: as §1, §2, §3
# [7] = tested on: STS activity
# Excerpt: The above effect is confirmed on functional biomarkers of STS activity for at least 84 days. As described before, STS converts sulphate precursors of estrogens. Thus, by inhibiting STS activity a reduction in serum levels of estrone and DHEA and an increase in estrone sulphate and DHEA sulphate are expected. This effect is described by baseline corrected fold-changes of the E1-S to E1 and DHEA-S to DHEA ratios over time (study days).
# [8] = Follow-up effect on post-treatment menstruation cycles (ovarian and transvaginal ultrasound)
# Excerpt: Menstruation cycle length was not influenced by the treatment. […] Sizes of right and left ovary differed slightly for each subject, but no clinically relevant changes were identified by the gynaecologists.
# [9] = Serum hormonal profile (E2, P4, T, D4A) by ELISA; type: in vivo, healthy pre-menopausal women; conditions: for mean concentration-time profiles for D4A / mean concentration-time profiles for T: after multiple dose administration; for E2 concentrations / P4 concentrations: mean concentration-time profile, suppression during the first cycle up to Day 29, normal increase on Day 43
# Description: (§4) Blood samples were collected from each subject in order to determine pharmacodynamic parameters (sulfatase activity and hormonal profile).
# (§5) STS activity was determined by spiking specimens with labelled EI-S and by measuring its conversion to E1 per gram protein under standardized incubation conditions using LC-MS/MS. Protein concentration was evaluated with a validated colorimetric assay (Bradford method). The serum samples for hormonal profile were analysed by specific and validated ELISA methods.
# [10] = target: T1, STS; conditions: in vivo
# Description: as §4, §5
# [11] = target: T1, STS; assay: STS activity in PBMCs (Phase I study, labelled E1-S conversion to E1, LC-MS/MS)
# Description: as §4, §5
# [12] = daily oral 0.5 or 1 mg/kg for 21 days, end of the treatment
# [13] = maximum during the NETA treatment period (values of days 8 to 29)
structure (smiles),measurement,setting,value
NS(=O)(=O)Oc1ccc2c3c(c(=O)oc2c1)CCCCC3,blocking STS activity in both eutopic and ectopic tissues,[1],effective
"C[C@]12CC[C@@H]3c4ccc(OS(N)(=O)=O)cc4CC[C@H]3[C@@H]1CC[C@@H]2O [E2MATE, Estradiol-3-o-sulfamate]",AVG [%],[2],66.6 (2.7) %
same,AVG (average effect over time (AUC)),[2]; STS inhibition in endometrium samples,66.60%
same,After treatment,"[2]; STS inhibition in endometrium samples, second row of Table 2",87.50%
same,lesion weight and size,[3]; [12],decreased
same,number of lesions,[3]; [12],without a reduction
same,STS activity inhibition in the uterus or in induced lesions,"[3]; daily oral dose, highest dose (1 mg/kg) for 21 days",≤ 36%
same,STS inhibitor activity,[4],active STS inhibitors
same,tolerability,[5],well tolerated
same,Emax,[6]; read-out: Emax (maximal observed effect),91%
same,inhibition at 4 mg,[6]; read-out: STS inhibition in endometrium,91%
same,Baseline relative change of the DHEA-S / DHEA [%],[7]; Day 1,0%
same,Baseline relative change of the E1-S / E1 [%],[7]; Day 1,0%
same,Baseline relative change of the DHEA-S / DHEA [%],[7]; Day 8,133%
same,Baseline relative change of the E1-S / E1 [%],[7]; Day 8,208%
same,Baseline relative change of the DHEA-S / DHEA [%],[7]; Day 15,116%
same,Baseline relative change of the E1-S / E1 [%],[7]; Day 15,282%
same,Baseline relative change of the DHEA-S / DHEA [%],[7]; Day 22,113%
same,Baseline relative change of the E1-S / E1 [%],[7]; Day 22,218%
same,Baseline relative change of the DHEA-S / DHEA [%],[7]; Day 29,148%
same,Baseline relative change of the E1-S / E1 [%],[7]; Day 29,194%
same,Baseline relative change of the DHEA-S / DHEA [%],[7]; Day 57,195%
same,Baseline relative change of the E1-S / E1 [%],[7]; Day 57,218%
same,Baseline relative change of the DHEA-S / DHEA [%],[7]; Day 85,232%
same,Baseline relative change of the E1-S / E1 [%],[7]; Day 85,243%
same,Baseline relative change of the DHEA-S / DHEA [%],[7]; Day 113,175%
same,Baseline relative change of the E1-S / E1 [%],[7]; Day 113,400%
same,DHEA-S to DHEA ratios increased,[7]; [13],up to 265%
same,baseline relative mean increases of the E1-S to E1 ratio,[7]; [13],up to 282%
same,effect on ovarian size,[8],no apparent effect
same,mean concentration-time profiles for D4A,[9],No relevant differences
same,mean concentration-time profiles for T,[9],No relevant differences
same,E2 concentrations,[9],Normal mean concentration-time profiles
same,P4 concentrations,[9],Normal mean concentration-time profiles
"C[C@]12CC[C@@H]3c4ccc(OS(N)(=O)=O)cc4CC[C@H]3[C@@H]1CCC2=O [EMATE, Estrone-3-o-sulfamate]",STS inhibitor activity,[4],active STS inhibitors
"C#C[C@]1(OC(C)=O)CC[C@H]2[C@@H]3CCC4=CC(=O)CC[C@@H]4[C@H]3CC[C@@]21C [NETA, norethindrone acetate, reference compound]",AVG [%],[2],14.9 (27.0) %
same,inhibition,[10],12%
same,Emax,[6],46.7%
same,effect on ovarian size,[8],no apparent effect
same,mean concentration-time profiles for D4A,[9],No relevant differences
same,mean concentration-time profiles for T,[9],No relevant differences
same,E2 concentrations,[9],suppressed
same,P4 concentrations,[9],suppressed
same,average inhibition,[11],4%
